Test results: US12655116B2, “Substituted isophthalic acid diamides” (Bayer Aktiengesellschaft, priority 2020, dated 2026)

How the values were obtained:
[1] = system: ABUTH; test: Pre-emergence herbicidal action against ABUTH; format: in vivo, Abutilon theophrasti
Procedure, shortened: (§1)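 Pre-emergence soil-surface spray of formulated compound (WP or EC; 600 to 800 l/ha; 0.2% wetting agent) over seeds sown in sandy loam. After 3 weeks under greenhouse conditions, damage is estimated visually in percent against untreated plants.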

[2] = system: ALOMY; test: Pre-emergence herbicidal action against ALOMY; format: in vivo, Alopecurus myosuroides
Procedure, shortened: as §1

[3] = system: AMARE; test: Pre-emergence herbicidal action against AMARE; format: in vivo, Amaranthus retroflexus
Procedure, shortened: as §1

[4] = system: AVEFA; test: Pre-emergence herbicidal action against AVEFA; format: in vivo, Avena fatua
Procedure, shortened: as §1

[5] = system: ECHCG; test: Pre-emergence herbicidal action against ECHCG; format: in vivo, Echinochloa crus-galli; details: 80 g/ha
Procedure, shortened: as §1

[6] = system: LOLRI; test: Pre-emergence herbicidal action against LOLRI; format: in vivo, Lolium rigidum; details: 80 g/ha
Procedure, shortened: as §1

[7] = system: MATIN; test: Pre-emergence herbicidal action against MATIN; format: in vivo, Matricaria inodora
Procedure, shortened: as §1

[8] = system: PHBPU; test: Pre-emergence herbicidal action against PHBPU; format: in vivo, Pharbitis purpurea; details: dosage 80 g/ha
Procedure, shortened: as §1

[9] = system: SETVI; test: Pre-emergence herbicidal action against SETVI; format: in vivo, Setaria viridis
Procedure, shortened: as §1

[10] = system: VIOTR; test: Pre-emergence herbicidal action against VIOTR; format: in vivo, Viola tricolor
Procedure, shortened: as §1

[11] = system: DIGSA; test: Pre-emergence herbicidal action against DIGSA; format: in vivo, Digitaria sanguinalis
Procedure, shortened: as §1

[12] = system: AMARE; test: Post-emergence herbicidal action against AMARE; format: in vivo, Amaranthus retroflexus; details: 20 g/ha, visual assessment about 3 weeks after treatment, 100% = plants have died, 0% = like control plants
Procedure, shortened: (§2)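 Greenhouse plants in sandy loam were sprayed at the one-leaf stage, 2 to 3 weeks after sowing, with WP or EC formulations as aqueous suspension or emulsion (600 to 800 l/ha water, 0.2% wetting agent). Visual damage was scored about 3 weeks later versus untreated controls, 0% = like control, 100% = dead.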

[13] = system: ECHCG; test: Post-emergence herbicidal action against ECHCG; format: in vivo, Echinochloa crus-galli
Procedure, shortened: as §2

[14] = system: PHBPU; test: Post-emergence herbicidal action against PHBPU; format: in vivo, Pharbitis purpurea
Procedure, shortened: as §2

[15] = system: SETVI; test: Post-emergence herbicidal action against SETVI; format: in vivo, Setaria viridis
Procedure, shortened: as §2

[16] = system: VERPE; test: Post-emergence herbicidal action against VERPE; format: in vivo, Veronica persica; details: 20 g/ha
Procedure, shortened: as §2

[17] = system: VIOTR; test: Post-emergence herbicidal action against VIOTR; format: in vivo, Viola tricolor
Procedure, shortened: as §2

[18] = system: DIGSA; test: Post-emergence herbicidal action against DIGSA; format: in vivo, Digitaria sanguinalis; details: 20 g/ha
Procedure, shortened: as §2

[19] = system: ABUTH; test: Post-emergence herbicidal action against ABUTH; format: in vivo, Abutilon theophrasti; details: Abutilon theophrasti, 504 h, visual assessment about 3 weeks after treatment vs untreated controls
Procedure, shortened: as §2

[20] = system: ALOMY; test: Post-emergence herbicidal action against ALOMY; format: in vivo, Alopecurus myosuroides; details: Alopecurus myosuroides, 504 h, dosage 20 g/ha, visual assessment about 3 weeks after treatment vs untreated controls
Procedure, shortened: as §2

[21] = 80 g/ha, scored visually after 3 weeks vs untreated controls (100% = plants have died, 0% = like control plants)
[22] = 20 g/ha, scored visually after 3 weeks, 100% = plants have died, 0% = like control plants

Cn1nnnc1NC(=O)c1ccc(C(F)(F)F)c(C(=O)NCC(F)F)c1Cl [Example 1-134]
Pre-emergence action against ABUTH (herbicidal activity) [1, 21]: 90%
Pre-emergence action against ALOMY [2, 22]: 80%
Pre-emergence action against ALOMY (herbicidal activity) ([2]; 80 g/ha, pre-emergence, scored visually after 3 weeks vs untreated controls (100% = plants have died, 0% = like control plants)): 100%
Pre-emergence action against AMARE in % ([3]; 20 g/ha, scored visually after 3 weeks vs untreated controls, 100% = plants have died, 0% = like control plants): 100%
Pre-emergence action against AMARE in % [3, 21]: 100%
Pre-emergence action against AVEFA [4, 22]: 80%
Pre-emergence action against AVEFA in % ([4]; 80 g/ha, pre-emergence): 90%
Pre-emergence action against ECHCG in % [5]: 100%
Pre-emergence action against LOLRI in % [6]: 80%
Pre-emergence action against MATIN in % ([7]; dosage 20 g/ha): 90%
Pre-emergence action against MATIN in % ([7]; dosage 80 g/ha): 100%
Pre-emergence action against PHBPU in % [8]: 80%
Pre-emergence action against SETVI in % ([9]; dosage 20 g/ha): 90%
Pre-emergence action against SETVI in % ([9]; dosage 80 g/ha): 100%
Pre-emergence action against VIOTR in % ([10]; dosage 20 g/ha): 90%
Pre-emergence action against VIOTR in % ([10]; dosage 80 g/ha): 100%
Pre-emergence action against DIGSA in % ([11]; dosage 20 g/ha): 90%
Pre-emergence action against DIGSA in % ([11]; dosage 80 g/ha): 100%
Post-emergence action at 20 g/ha against AMARE in % [12]: 90%
Post-emergence action against ECHCG in % ([13]; dosage 20 g/ha): 90%
Post-emergence action against PHBPU in % ([14]; dosage 5 g/ha): 80%
Post-emergence action against PHBPU in % ([14]; dosage 20 g/ha): 90%
Post-emergence action against SETVI in % ([15]; dosage 5 g/ha): 90%
Post-emergence action against SETVI in % ([15]; dosage 20 g/ha): 90%
Post-emergence action against VERPE in % [16]: 80%
Post-emergence action against VIOTR in % ([17]; 5 g/ha): 90%
Post-emergence action against VIOTR in % ([17]; 20 g/ha): 90%
Post-emergence action against DIGSA [18]: 90%

CC(C)NC(=O)c1c(Br)ccc(C(=O)Nc2nnnn2C)c1Cl [Example 1-185]
pest or weed control at 80 g/ha ([1]; Abutilon theophrasti, 504 h, 80 g/ha, scored visually after 3 weeks vs untreated controls (100% = plants have died, 0% = like control plants)): 100%
pest or weed control at 20 g/ha ([1]; Abutilon theophrasti, 504 h, dosage 20 g/ha, scored visually after 3 weeks vs untreated controls, 100% = plants have died, 0% = like control plants, read-out: Pre-emergence action against ABUTH (herbicidal activity in percent)): 100%
pest or weed control at 80 g/ha ([2]; Alopecurus myosuroides, 504 h, 80 g/ha, pre-emergence, scored visually after 3 weeks vs untreated controls (100% = plants have died, 0% = like control plants)): 100%
pest or weed control at 20 g/ha ([2]; Alopecurus myosuroides, pre-emergence, 504 h, 20 g/ha, scored visually after 3 weeks, 100% = plants have died, 0% = like control plants): 90%
pest or weed control at 20 g/ha ([3]; Amaranthus retroflexus, 504 h, 20 g/ha, scored visually after 3 weeks vs untreated controls, 100% = plants have died, 0% = like control plants): 100%
pest or weed control at 80 g/ha ([3]; Amaranthus retroflexus, 504 h, 80 g/ha, scored visually after 3 weeks vs untreated controls, 100% = plants have died, 0% = like control plants): 100%
pest or weed control at 80 g/ha ([4]; Avena fatua, 504 h, 80 g/ha, pre-emergence): 100%
pest or weed control at 80 g/ha ([5]; Echinochloa crus-galli, 504 h): 100%
pest or weed control at 80 g/ha ([6]; Lolium rigidum, 504 h): 90%
pest or weed control at 20 g/ha ([7]; Tripleurospermum inodorum, 504 h, dosage 20 g/ha): 100%
pest or weed control at 80 g/ha ([7]; Tripleurospermum inodorum, 504 h, dosage 80 g/ha): 100%
pest or weed control at 80 g/ha ([8]; Ipomoea purpurea, 504 h): 80%
pest or weed control at 80 g/ha ([9]; Setaria viridis, 504 h, dosage 80 g/ha): 100%
pest or weed control at 20 g/ha ([10]; Viola tricolor, 504 h, dosage 20 g/ha): 80%
pest or weed control at 80 g/ha ([10]; Viola tricolor, 504 h, dosage 80 g/ha): 100%
pest or weed control at 5 g/ha ([19]; dosage 5 g/ha): 80%
pest or weed control at 20 g/ha ([19]; dosage 20 g/ha): 90%
pest or weed control at 20 g/ha [20]: 90%
pest or weed control at 20 g/ha ([12]; Amaranthus retroflexus, 504 h): 100%
pest or weed control at 5 g/ha ([13]; Echinochloa crus-galli, 504 h, dosage 5 g/ha): 90%
pest or weed control at 20 g/ha ([13]; Echinochloa crus-galli, 504 h, dosage 20 g/ha): 100%
pest or weed control at 5 g/ha ([15]; Setaria viridis, 504 h, dosage 5 g/ha): 80%
pest or weed control at 20 g/ha ([15]; Setaria viridis, 504 h, dosage 20 g/ha): 100%
pest or weed control at 20 g/ha ([16]; Veronica persica, 504 h): 80%
pest or weed control at 20 g/ha ([17]; Viola tricolor, 504 h, 20 g/ha): 80%
